Experimental data published in patent US20090137572A1, “2-substituted-4-heteroaryl-pyrimidines useful for the treatment of proliferative disorders” (priority 2004, published 2009).

Experiments:
CDK1-cyclin B = CDK1-cyclin B (Homo sapiens, UniProt P06493); test: Kinase assay (radioactive phosphate incorporation), CDK1-cyclin B; format: biochemical; conditions: read-out: Kinase Inhibition pIC50 CDK1-cyclin B (converted)
Protocol: (§1) Kinase assays. The compounds of the invention above were investigated for their ability to inhibit the enzymatic activity of various protein kinases (Table 2). This was achieved by measurement of incorporation of radioactive phosphate from ATP into appropriate polypeptide substrates. Recombinant protein kinases and kinase complexes were produced or obtained commercially. Assays were performed using 96-well plates and appropriate assay buffers (typically 25 mM β-glycerophosphate, 20 mM MOPS, 5 mM EGTA, 1 mM DTT, 1 mM […], pH 7.4), into which were added 2-4 μg of active enzyme with appropriate substrates. The reactions were initiated by addition of Mg/ATP mix (15 mM MgCl2+100 μM ATP with 30-50 kBq per well of [γ-^32P]-ATP) and mixtures incubated as required at 30° C. Reactions were stopped on ice, followed by filtration through p81 filterplates or GF/C filterplates (Whatman Polyfiltronics, Kent, UK). After washing 3 times with 75 mM aq orthophosphoric acid, plates were dried, scintillant added and incorporated radioactivity measured in a scintillation counter (TopCount, Packard Instruments, Pangbourne, Berks, UK). Compounds for kinase assay were made up as 10 mM stocks in DMSO and diluted into 10% DMSO in assay buffer.

[1] = molecular target: T1, Flt3 (FMS-like tyrosine kinase-3) (Homo sapiens, UniProt P36888); test: Kinase assay (radioactive phosphate incorporation), Flt3; format: biochemical; conditions: pIC50 is -log(IC50, M), read-out: Kinase Inhibition pIC50 Flt3 (converted)
T1 sequence (P36888 27-993): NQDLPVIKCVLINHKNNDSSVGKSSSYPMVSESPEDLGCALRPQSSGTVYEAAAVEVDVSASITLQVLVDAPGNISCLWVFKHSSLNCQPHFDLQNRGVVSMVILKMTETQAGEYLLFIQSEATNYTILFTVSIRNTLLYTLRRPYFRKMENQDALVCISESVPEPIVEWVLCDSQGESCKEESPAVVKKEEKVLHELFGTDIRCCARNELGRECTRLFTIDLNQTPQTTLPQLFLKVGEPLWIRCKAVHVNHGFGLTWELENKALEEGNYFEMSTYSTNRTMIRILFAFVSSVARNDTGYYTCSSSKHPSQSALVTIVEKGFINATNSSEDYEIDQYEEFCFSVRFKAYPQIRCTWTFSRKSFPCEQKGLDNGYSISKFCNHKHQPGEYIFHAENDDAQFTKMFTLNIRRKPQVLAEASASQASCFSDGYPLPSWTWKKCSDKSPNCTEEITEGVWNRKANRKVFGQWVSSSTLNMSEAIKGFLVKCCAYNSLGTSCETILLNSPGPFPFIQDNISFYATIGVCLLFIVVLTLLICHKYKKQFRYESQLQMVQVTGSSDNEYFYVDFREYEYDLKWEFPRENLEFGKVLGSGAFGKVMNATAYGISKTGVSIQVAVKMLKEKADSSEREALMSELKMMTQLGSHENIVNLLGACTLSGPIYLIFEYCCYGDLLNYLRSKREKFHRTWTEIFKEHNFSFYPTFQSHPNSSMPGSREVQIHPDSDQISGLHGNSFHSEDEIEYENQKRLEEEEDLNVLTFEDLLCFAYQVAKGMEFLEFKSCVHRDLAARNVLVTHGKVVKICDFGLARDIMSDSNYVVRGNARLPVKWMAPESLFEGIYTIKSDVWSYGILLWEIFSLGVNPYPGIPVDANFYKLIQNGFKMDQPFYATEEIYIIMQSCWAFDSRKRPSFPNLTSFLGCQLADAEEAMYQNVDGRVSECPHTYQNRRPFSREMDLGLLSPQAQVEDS
Method in brief: (§2)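 Each recombinant kinase was combined with its polypeptide substrate in pH 7.4 assay buffer. Mg/ATP mix carrying [γ-32P]-ATP (100 μM ATP) was then added and the plate incubated at 30° C. After stopping on ice, the reaction was filtered, washed with 75 mM orthophosphoric acid, dried and counted.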

Aurora A kinase = molecular target: T2, Aurora A kinase (Homo sapiens, UniProt O14965); test: Aurora-A (human) kinase assay (Kemptide substrate); format: biochemical; conditions: pIC50 is -log(IC50, M); 15 μM ATP; read-out: Kinase Inhibition pIC50 Aurora A kinase (converted)
T2 construct: purchased
T2 sequence (O14965 1-403): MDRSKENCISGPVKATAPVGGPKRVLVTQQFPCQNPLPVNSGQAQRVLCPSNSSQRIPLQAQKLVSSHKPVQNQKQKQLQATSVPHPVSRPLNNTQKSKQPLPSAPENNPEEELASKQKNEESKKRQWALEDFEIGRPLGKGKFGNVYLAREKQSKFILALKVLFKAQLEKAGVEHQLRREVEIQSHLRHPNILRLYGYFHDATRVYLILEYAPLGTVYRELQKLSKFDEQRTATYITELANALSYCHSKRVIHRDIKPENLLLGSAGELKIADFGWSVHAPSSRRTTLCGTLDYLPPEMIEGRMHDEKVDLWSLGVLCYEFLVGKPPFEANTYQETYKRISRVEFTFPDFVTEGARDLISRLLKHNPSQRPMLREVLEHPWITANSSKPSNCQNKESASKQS
Method in brief: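 Kemptide (LRRASLG, 200 μM) phosphorylation by 5-10 ng commercial aurora-A measured as [γ-33P] incorporation at 15 μM ATP with 10 mM Mg acetate, pH 7.0 MOPS buffer. Reaction ran 40 min at room temperature; acid-stopped, captured on P81 filters, scintillation read.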

CDK9/cyclin T1 = CDK9/cyclin T1 (Homo sapiens, UniProt P50750); test: CDK 9 assay (CTD peptide substrate); format: biochemical; conditions: read-out: Kinase Inhibition pIC50 CDK9-cyclin T1 (converted)
Sequence of CDK9/cyclin T1 (P50750 whole entry): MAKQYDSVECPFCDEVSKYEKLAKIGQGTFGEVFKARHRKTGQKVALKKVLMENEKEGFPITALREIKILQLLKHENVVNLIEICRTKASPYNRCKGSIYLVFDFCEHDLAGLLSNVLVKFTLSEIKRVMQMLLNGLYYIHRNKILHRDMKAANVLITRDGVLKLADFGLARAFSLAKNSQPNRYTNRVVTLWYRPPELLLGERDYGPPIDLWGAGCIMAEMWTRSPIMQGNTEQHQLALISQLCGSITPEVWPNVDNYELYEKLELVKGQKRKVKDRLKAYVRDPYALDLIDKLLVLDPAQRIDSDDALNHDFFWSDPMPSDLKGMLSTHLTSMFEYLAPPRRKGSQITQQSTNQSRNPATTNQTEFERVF
Sequence of CDK9/cyclin T1 (O60563 whole entry partner): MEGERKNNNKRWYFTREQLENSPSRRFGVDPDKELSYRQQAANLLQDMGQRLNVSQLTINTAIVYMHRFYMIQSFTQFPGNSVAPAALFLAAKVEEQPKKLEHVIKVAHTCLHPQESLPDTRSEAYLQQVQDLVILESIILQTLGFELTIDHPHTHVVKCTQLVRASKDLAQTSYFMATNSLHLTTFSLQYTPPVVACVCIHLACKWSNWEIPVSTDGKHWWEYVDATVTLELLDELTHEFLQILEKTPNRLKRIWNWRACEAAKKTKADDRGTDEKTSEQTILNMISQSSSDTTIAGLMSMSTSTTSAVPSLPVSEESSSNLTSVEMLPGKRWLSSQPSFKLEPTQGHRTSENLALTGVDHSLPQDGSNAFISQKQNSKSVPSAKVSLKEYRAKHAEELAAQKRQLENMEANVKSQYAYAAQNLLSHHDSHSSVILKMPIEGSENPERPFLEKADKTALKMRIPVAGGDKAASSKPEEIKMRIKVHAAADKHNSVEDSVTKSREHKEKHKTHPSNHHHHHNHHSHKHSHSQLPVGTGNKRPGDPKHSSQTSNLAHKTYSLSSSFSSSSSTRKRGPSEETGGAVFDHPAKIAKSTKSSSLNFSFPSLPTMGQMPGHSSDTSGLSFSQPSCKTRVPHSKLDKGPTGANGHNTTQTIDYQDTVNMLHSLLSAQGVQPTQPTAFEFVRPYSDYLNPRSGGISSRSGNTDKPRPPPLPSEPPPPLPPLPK
Method in brief: (§3)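 Inhibition measured against recombinant human kinase/cyclin complex phosphorylating biotin-(Tyr-Ser-Pro-Thr-Ser-Pro-Ser)4 peptide, 100 μM radiolabelled ATP, 45 min at 30° C. Product quantified by filter capture and scintillation counting.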

CDK4-cyclin D1 = CDK4-cyclin D1 (Homo sapiens, UniProt P11802); test: Kinase assay (radioactive phosphate incorporation), CDK4-cyclin D1; format: biochemical; conditions: read-out: Kinase Inhibition pIC50 CDK4-cyclin D1 (converted)
Sequence of CDK4-cyclin D1 (P11802 whole entry): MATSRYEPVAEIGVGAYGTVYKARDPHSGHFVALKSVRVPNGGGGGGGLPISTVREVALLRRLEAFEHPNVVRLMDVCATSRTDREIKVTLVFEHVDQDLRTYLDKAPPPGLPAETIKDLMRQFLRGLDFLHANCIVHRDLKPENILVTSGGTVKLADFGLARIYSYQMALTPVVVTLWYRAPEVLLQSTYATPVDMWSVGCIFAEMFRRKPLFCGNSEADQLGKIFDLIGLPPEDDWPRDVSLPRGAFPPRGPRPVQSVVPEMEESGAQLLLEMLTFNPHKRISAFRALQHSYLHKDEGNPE
Sequence of CDK4-cyclin D1 (P24385 whole entry partner): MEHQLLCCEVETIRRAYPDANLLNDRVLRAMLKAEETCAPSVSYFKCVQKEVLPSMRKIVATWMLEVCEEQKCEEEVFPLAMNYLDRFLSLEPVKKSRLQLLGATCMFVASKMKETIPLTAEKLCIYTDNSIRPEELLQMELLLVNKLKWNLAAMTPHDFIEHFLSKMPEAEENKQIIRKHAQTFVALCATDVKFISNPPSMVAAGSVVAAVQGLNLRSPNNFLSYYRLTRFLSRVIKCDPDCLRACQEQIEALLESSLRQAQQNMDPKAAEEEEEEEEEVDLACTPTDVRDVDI
Protocol: as §1

CDK2-cycline E = CDK2-cycline E (Homo sapiens, UniProt P24941); test: Kinase assay (radioactive phosphate incorporation), CDK2-cyclin E; format: biochemical; conditions: read-out: Kinase Inhibition pIC50 CDK2-cycline E (converted)
Method in brief: as §2

CDK7/cyclin H = CDK7/cyclin H (Homo sapiens, UniProt P50613); test: CDK 7 assay (CTD peptide substrate); format: biochemical; conditions: read-out: Kinase Inhibition pIC50 CDK7-cyclin H (converted)
Sequence of CDK7/cyclin H (P50613 whole entry): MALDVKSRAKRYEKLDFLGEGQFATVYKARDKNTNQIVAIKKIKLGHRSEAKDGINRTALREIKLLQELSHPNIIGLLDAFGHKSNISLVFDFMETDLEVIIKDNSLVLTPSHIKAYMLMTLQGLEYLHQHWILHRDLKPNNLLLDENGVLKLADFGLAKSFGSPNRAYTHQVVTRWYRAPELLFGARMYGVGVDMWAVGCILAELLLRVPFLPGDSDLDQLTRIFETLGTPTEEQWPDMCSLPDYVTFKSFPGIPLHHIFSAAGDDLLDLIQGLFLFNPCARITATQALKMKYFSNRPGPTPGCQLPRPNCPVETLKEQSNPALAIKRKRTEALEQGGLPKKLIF
Sequence of CDK7/cyclin H (P51946 whole entry partner): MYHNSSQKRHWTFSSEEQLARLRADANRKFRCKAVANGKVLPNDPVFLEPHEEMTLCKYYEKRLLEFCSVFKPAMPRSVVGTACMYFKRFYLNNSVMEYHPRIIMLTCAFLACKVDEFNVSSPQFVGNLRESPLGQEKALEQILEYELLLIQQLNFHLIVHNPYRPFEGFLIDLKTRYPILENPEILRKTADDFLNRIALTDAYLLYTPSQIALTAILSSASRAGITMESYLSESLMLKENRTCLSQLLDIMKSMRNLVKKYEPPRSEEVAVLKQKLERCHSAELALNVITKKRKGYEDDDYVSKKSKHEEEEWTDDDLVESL
Method in brief: as §3

GSK3b = GSK3b (Homo sapiens, UniProt P49841); test: Kinase assay (radioactive phosphate incorporation), GSK-3b; format: biochemical; conditions: read-out: Kinase Inhibition pIC50 GSK-3b (converted)
Sequence of GSK3b (P49841 whole entry, species assumed): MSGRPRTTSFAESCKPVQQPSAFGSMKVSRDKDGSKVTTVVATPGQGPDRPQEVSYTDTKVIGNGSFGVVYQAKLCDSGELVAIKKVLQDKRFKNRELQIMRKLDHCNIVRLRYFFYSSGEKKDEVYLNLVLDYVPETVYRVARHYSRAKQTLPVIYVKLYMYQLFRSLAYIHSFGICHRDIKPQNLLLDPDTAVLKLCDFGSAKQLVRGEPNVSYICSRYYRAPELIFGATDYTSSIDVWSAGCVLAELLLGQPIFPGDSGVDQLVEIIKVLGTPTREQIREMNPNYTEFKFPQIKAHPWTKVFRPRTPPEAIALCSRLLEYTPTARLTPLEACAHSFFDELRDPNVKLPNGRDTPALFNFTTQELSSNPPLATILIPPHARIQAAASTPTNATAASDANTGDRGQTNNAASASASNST
Protocol: as §1

Sequence of CDK1-cyclin B (P06493 whole entry): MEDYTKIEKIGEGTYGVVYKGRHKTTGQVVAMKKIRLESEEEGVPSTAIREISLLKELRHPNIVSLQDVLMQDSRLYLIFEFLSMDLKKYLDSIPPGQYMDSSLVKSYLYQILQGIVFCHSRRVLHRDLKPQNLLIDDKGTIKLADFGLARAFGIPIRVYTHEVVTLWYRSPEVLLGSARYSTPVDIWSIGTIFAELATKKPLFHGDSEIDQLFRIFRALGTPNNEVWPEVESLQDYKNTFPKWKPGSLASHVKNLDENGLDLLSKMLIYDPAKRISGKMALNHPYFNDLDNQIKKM
Sequence of CDK1-cyclin B (P14635 whole entry partner): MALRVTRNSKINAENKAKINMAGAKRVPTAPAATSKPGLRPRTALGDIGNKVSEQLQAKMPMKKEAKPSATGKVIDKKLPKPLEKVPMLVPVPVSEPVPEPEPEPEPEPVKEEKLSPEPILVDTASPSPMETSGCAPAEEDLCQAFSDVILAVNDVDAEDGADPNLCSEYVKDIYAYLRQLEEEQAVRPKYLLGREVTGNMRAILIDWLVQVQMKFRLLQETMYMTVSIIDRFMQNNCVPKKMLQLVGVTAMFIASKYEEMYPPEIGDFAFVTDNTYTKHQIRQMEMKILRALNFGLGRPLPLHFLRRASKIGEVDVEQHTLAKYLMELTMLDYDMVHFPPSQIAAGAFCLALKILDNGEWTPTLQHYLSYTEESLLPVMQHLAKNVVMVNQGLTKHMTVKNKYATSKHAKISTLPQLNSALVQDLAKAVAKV

| SMILES | IC50 (CDK1-cyclin B) [µM] | IC50 [1] [µM] | IC50 (Aurora A kinase) [µM] | IC50 (CDK9/cyclin T1) [µM] | IC50 (CDK4-cyclin D1) [µM] | IC50 (CDK2-cycline E) [µM] | IC50 (CDK7/cyclin H) [µM] | IC50 (GSK3b) [µM] | melting point [°C] |
| --- | --- | --- | --- | --- | --- | --- | --- | --- | --- |
| CCNc1nc(C)c(-c2ccnc(Nc3cc(OC)c(OC)c(OC)c3)n2)s1 [Compound 24, [4-(2-Ethylamino-4-methyl-thiazol-5-yl)-pyrimidin-2-yl]-(3,4,5-trimethoxy-phenyl)-amine] | 2 | 0.00794 | 0.00251 | 0.0316 |  |  |  |  |  |
| CCNc1nc(C)c(-c2ccnc(Nc3cccc(S(=O)(=O)NCC)c3)n2)s1 [Compound 29, N-Ethyl-3-[4-(2-ethylamino-4-methyl-thiazol-5-yl)-pyrimidin-2-ylamino]-benzenesulfonamide] |  | 1 | 0.0501 | 0.01 | 0.398 | 0.316 | 0.794 |  |  |
| CNc1nc(C)c(-c2ccnc(Nc3ccc(S(N)(=O)=O)cc3)n2)s1 [Compound 34, 4-[4-(4-Methyl-2-methylamino-thiazol-5-yl)-pyrimidin-2-ylamino]-benzenesulfonamide] |  | 0.316 | 0.0316 |  |  |  | 1 | 1.26 |  |
| CCNc1nc(C)c(-c2ccnc(Nc3ccc(C)c(S(=O)(=O)N4CCOCC4)c3)n2)s1 [Compound 36, [4-(2-Ethylamino-4-methyl-thiazol-5-yl)-pyrimidin-2-yl]-[4-methyl-3-(morpholine-4-sulfonyl)-phenyl]-amine] |  |  | 0.0126 | 0.0398 |  |  | 1.26 | 3.98 |  |
| CNc1nc(C)c(-c2ccnc(Nc3ccc(C)c(Br)c3)n2)s1 [Compound 42, (3-Bromo-4-methyl-phenyl)-[4-(4-methyl-2-methylamino-thiazol-5-yl)-pyrimidin-2-yl]-amine] |  | 0.0794 | 0.0251 | 0.0398 |  | 0.316 | 6.31 | 1 |  |
| CC(=O)N1CCN(c2ccc(Nc3nccc(-c4sc(N)nc4C)n3)cc2)CC1 [Compound 57, 1-(4-{4-[4-(2-Amino-4-methyl-thiazol-5-yl)-pyrimidin-2-ylamino]-phenyl}-piperazin-1-yl)-ethanone] | 79.4 |  | 0.0631 | 10 | 10 |  | 15.8 |  |  |
| CCNc1nc(C)c(-c2ccnc(NCc3cccnc3)n2)s1 [Compound 79, [4-(2-Ethylamino-4-methyl-thiazol-5-yl)-pyrimidin-2-yl]-pyridin-3-ylmethyl-amine] |  |  |  | 1.58 | 3.16 | 6.31 | 6.31 |  |  |
| CCNc1nc(C)c(-c2ccnc(Nc3cccc(S(=O)(=O)NCc4ccccc4)c3)n2)s1 [Compound 80, N-Benzyl-3-[4-(2-ethylamino-4-methyl-thiazol-5-yl)-pyrimidin-2-ylamino]-benzenesulfonamide] |  |  | 0.398 | 0.251 |  |  |  | 2.51 |  |
| Cc1nc(N)sc1-c1ccnc(Nc2cccc(S(=O)(=O)N3CCOCC3)c2)n1 [Compound 81, [4-(2-Amino-4-methyl-thiazol-5-yl)-pyrimidin-2-yl]-[3-(morpholine-4-sulfonyl)-phenyl]-amine] |  |  | 3.16 |  |  | 3.16 | 6.31 | 0.0251 | 215 to 216 |
| COCCNc1nc(C)c(-c2ccnc(Nc3cccc(S(N)(=O)=O)c3)n2)s1 [Compound 83, 3-{4-[2-(2-Methoxy-ethylamino)-4-methyl-thiazol-5-yl]-pyrimidin-2-ylamino}-benzenesulfonamide] |  | 0.0398 |  | 0.0158 |  | 0.0251 | 0.0501 | 0.794 |  |
| CCNc1nc(C)c(-c2ccnc(Nc3cccc(S(=O)(=O)NC(C)(C)CO)c3)n2)s1 [Compound 84, 3-[4-(2-Ethylamino-4-methyl-thiazol-5-yl)-pyrimidin-2-ylamino]-N-(2-hydroxy-1,1-dimethyl-ethyl)-benzenesulfonamide] |  |  | 0.0251 | 0.158 |  | 0.631 | 1.58 | 2.51 |  |
| Cc1nc(C)c(-c2ccnc(Nc3cccc(CNC(=O)c4ccccn4)c3)n2)s1 [Compound 91, Pyridine-2-carboxylic acid 3-[4-(2,4-dimethyl-thiazol-5-yl)-pyrimidin-2-ylamino]-benzylamide] |  | 0.251 | 0.794 |  |  | 0.398 |  | 3.98 |  |
| CC(=O)N1CCN(c2ccc(Nc3nccc(-c4sc(NCCc5ccccc5)nc4C)n3)cc2)CC1 [Compound 163, 1-(4-{4-[4-(4-Methyl-2-phenethylamino-thiazol-5-yl)-pyrimidin-2-ylamino]-phenyl}-piperazin-1-yl)-ethanone] |  | 0.126 | 0.0631 | 0.631 |  | 1.26 | 2.51 |  | 212 to 213 |
| CC(=O)N1CCN(c2ccc(Nc3nccc(-c4sc(N(C)c5cccnc5)nc4C)n3)cc2)CC1 [Compound 164, 1-[4-(4-{4-[4-Methyl-2-(methyl-pyridin-3-yl-amino)-thiazol-5-yl]pyrimidin-2-ylamino}-phenyl)-piperazin-1-yl]-ethanone] |  | 0.0251 | 0.0316 | 2 |  | 0.398 | 3.98 |  | 205 to 206 |
| COc1cc(Nc2nccc(-c3sc(NCCc4ccccc4)nc3C)n2)cc(OC)c1OC [Compound 165, [4-(4-Methyl-2-phenethylamino-thiazol-5-yl)-pyrimidin-2-yl]-(3,4,5-trimethoxy-phenyl)-amine] |  | 0.02 | 0.0631 |  |  | 2.51 |  |  | 184 to 186 |
